Experimental data: PubChem BioAssay (NCI)
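Growth conditions: 96-well plates. Treatment: test compound, 48 hours, 5 concentrations. Analysis: linear interpolation between bracketing concentrations; unreached endpoints set to highest concentration. Definition used: TGI = concentration required for complete inhibition of growth.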

How the values were obtained:
Experiment in all cases: inhibition of tumour cell growth, NCI panel, 48 h
HOP-92 NSCLC = test system: HOP-92 NSCLC
SK-OV-3 ovarian = test system: SK-OV-3 ovarian
SN12C renal = test system: SN12C renal
OVCAR-5 ovarian = test system: OVCAR-5 ovarian
KM12 colon = test system: KM12 colon
SR leukemia = test system: SR leukemia
NCI-H460 lung = test system: NCI-H460 lung
HL-60(TB) leukemia = test system: HL-60(TB) leukemia
A498 renal = test system: A498 renal
SK-MEL-28 melanoma = test system: SK-MEL-28 melanoma
EKVX NSCLC = test system: EKVX NSCLC
HCC-2998 colon = test system: HCC-2998 colon
RPMI-8226 leukemia = test system: RPMI-8226 leukemia
OVCAR-3 ovarian = test system: OVCAR-3 ovarian
NCI-H23 lung = test system: NCI-H23 lung
SF-295 CNS = test system: SF-295 CNS
T-47D breast = test system: T-47D breast
SF-539 CNS = test system: SF-539 CNS
SK-MEL-5 melanoma = test system: SK-MEL-5 melanoma
NCI/ADR-RES ovarian = test system: NCI/ADR-RES ovarian
BT-549 breast = test system: BT-549 breast
M14 melanoma = test system: M14 melanoma
HT29 colon = test system: HT29 colon
SW-620 colon = test system: SW-620 colon
TK-10 renal = test system: TK-10 renal
LOX IMVI melanoma = test system: LOX IMVI melanoma
CCRF-CEM leukemia = test system: CCRF-CEM leukemia
NCI-H522 lung = test system: NCI-H522 lung
IGROV1 ovarian = test system: IGROV1 ovarian
HCT-15 colon = test system: HCT-15 colon
MALME-3M melanoma = test system: MALME-3M melanoma
CAKI-1 renal = test system: CAKI-1 renal
MCF7 breast = test system: MCF7 breast
HCT-116 colon = test system: HCT-116 colon
MDA-MB-231 breast = test system: MDA-MB-231 breast
OVCAR-8 ovarian = test system: OVCAR-8 ovarian
MDA-MB-435 = test system: MDA-MB-435
SF-268 CNS = test system: SF-268 CNS
SNB-19 CNS = test system: SNB-19 CNS
UO-31 renal = test system: UO-31 renal
A549 NSCLC = test system: A549 NSCLC
COLO 205 colon = test system: COLO 205 colon
SNB-75 CNS = test system: SNB-75 CNS
MOLT-4 leukemia = test system: MOLT-4 leukemia
HOP-62 NSCLC = test system: HOP-62 NSCLC
DU-145 prostate = test system: DU-145 prostate
OVCAR-4 ovarian = test system: OVCAR-4 ovarian
PC-3 prostate = test system: PC-3 prostate
MDA-N = test system: MDA-N
U251 CNS = test system: U251 CNS
UACC-257 melanoma = test system: UACC-257 melanoma
K-562 leukemia = test system: K-562 leukemia
ACHN renal = test system: ACHN renal
HS 578T breast = test system: HS 578T breast
NCI-H226 lung = test system: NCI-H226 lung
786-0 renal = test system: 786-0 renal
SK-MEL-2 melanoma = test system: SK-MEL-2 melanoma

O=C(O)COc1cc(-c2ccccc2)nc2ccccc12
TGI (HOP-92 NSCLC): > 100 µM | TGI (SK-OV-3 ovarian): > 100 µM | TGI (SN12C renal): > 100 µM | TGI (OVCAR-5 ovarian): > 100 µM | TGI (KM12 colon): > 100 µM | TGI (SR leukemia): > 100 µM | TGI (NCI-H460 lung): > 100 µM | TGI (HL-60(TB) leukemia): > 100 µM | TGI (A498 renal): > 100 µM | TGI (SK-MEL-28 melanoma): > 100 µM | TGI (EKVX NSCLC): > 100 µM | TGI (HCC-2998 colon): > 100 µM | TGI (RPMI-8226 leukemia): > 100 µM | TGI (OVCAR-3 ovarian): > 100 µM | TGI (NCI-H23 lung): > 100 µM | TGI (SF-295 CNS): > 100 µM | TGI (T-47D breast): > 100 µM | TGI (SF-539 CNS): > 100 µM | TGI (SK-MEL-5 melanoma): > 100 µM | TGI (NCI/ADR-RES ovarian): > 100 µM | TGI (BT-549 breast): > 100 µM | TGI (M14 melanoma): > 100 µM | TGI (HT29 colon): > 100 µM | TGI (SW-620 colon): > 100 µM | TGI (TK-10 renal): > 100 µM | TGI (LOX IMVI melanoma): > 100 µM | TGI (CCRF-CEM leukemia): > 100 µM | TGI (NCI-H522 lung): > 100 µM | TGI (IGROV1 ovarian): > 100 µM | TGI (HCT-15 colon): > 100 µM | TGI (MALME-3M melanoma): > 100 µM | TGI (CAKI-1 renal): > 100 µM | TGI (MCF7 breast): > 100 µM | TGI (HCT-116 colon): > 100 µM | TGI (MDA-MB-231 breast): > 100 µM | TGI (OVCAR-8 ovarian): > 100 µM | TGI (MDA-MB-435): 73.8 µM | TGI (SF-268 CNS): > 100 µM | TGI (SNB-19 CNS): > 100 µM | TGI (UO-31 renal): > 100 µM | TGI (A549 NSCLC): > 100 µM | TGI (COLO 205 colon): > 100 µM | TGI (SNB-75 CNS): > 100 µM | TGI (MOLT-4 leukemia): > 100 µM | TGI (HOP-62 NSCLC): > 100 µM | TGI (DU-145 prostate): > 100 µM | TGI (OVCAR-4 ovarian): > 100 µM | TGI (PC-3 prostate): > 100 µM | TGI (MDA-N): 85.7 µM | TGI (U251 CNS): > 100 µM | TGI (UACC-257 melanoma): > 100 µM | TGI (K-562 leukemia): > 100 µM | TGI (ACHN renal): > 100 µM | TGI (HS 578T breast): > 100 µM | TGI (NCI-H226 lung): > 100 µM | TGI (786-0 renal): > 100 µM | TGI (SK-MEL-2 melanoma): > 100 µM
